Columns and labels:
[1] = test system: 60 human cancer cell lines; experiment: NCI-60 SRB screen, whole panel; format: cell-based; conditions: Homo sapiens, 48 h; One Dose Mean Graph, Conc 1.00E-5 Molar; read-out: Mean Growth Percent
[2] = test system: PC-3; experiment: NCI-60 SRB screen; format: cell-based; conditions: Homo sapiens; PC-3, 10^–5 Molar; read-out: Percent growth inhibition
Experimental: (§1) All newly synthesized compounds were selected and screened for anticancer activity against 60 human cancer cell lines representing 9 types of tumors including leukemia, melanoma, lung, colon, CNS, ovarian, renal, prostate, and breast cancers at the National Cancer Institute (NCI), Bethesda, USA. Screening was performed utilizing a single dose (10^−5 M concentration) and cells were incubated for 48 h. The end point was determined using sulforhodamine B (SRB) dye.
(§2) In this study, all the 16 newly synthesized compounds were submitted to the National Cancer Institute (USA) for anticancer evaluation and were selected and evaluated using 60 different human tumor cell lines representing lung, colon, CNS, ovarian, renal, prostate, breast cancers as well as leukemia and melanoma. A single dose (10^–5 Molar) was used for the initial screening for evaluation of anticancer activity. The 60 human cancer cell lines were provided by the national cancer institute biomedical research campus in Frederick, Maryland.
(§3) 60 different human cancer cell lines were utilized to screen the newly synthesized compounds for anticancer activity according to the previously reported standard procedure[24]–[26] as follows: • 96 well microtiter plates were used to inoculate the cells at […] ranging from 4000–5000 cells/well depending on the replication time of individual cell lines. Roswell Park Memorial Institute culture medium (RPMI 1640 medium) containing 2 mM L-glutamine and fetal bovine serum was used to grow the cells at 37 °C, 5% CO2, 95% air and 100% relative humidity for 24 h. • Fixation of cells in two plates of each cell line in situ was done using trichloroacetic acid (TCA). This represented the measurement of cell population at the time of drug addition (Tz). • Dimethyl sulfoxide (DMSO) was used to dissolve the synthesized compounds at 400-fold the desired final maximum concentration and frozen prior to use. This frozen concentrate was melted and diluted to twice the final concentration with complete medium containing 50 µg/mL gentamycin at time of drug addition. • The final compound concentration was obtained by adding 100 µL of the synthesized compounds to the appropriate microtiter wells already containing 100 µL followed by incubation of the plates at 37 °C, 5% CO2, 95% air and 100% relative humidity for 48 h. • Fixation of the cells was achieved by gentle addition of 50 µL of cold 50% (w/v) TCA followed by incubation for 60 min at 4 °C. The supernatant was then discarded and the plates are washed 5 times with tap water and air dried. • Sulphorhodamine B (SRB) solution (100 µL) at 0.4% (w/v) in 1% acetic acid was added to each plate followed by incubation for 10 min at room temperature. The unbound dye was then removed by washing five times with 1% acetic acid and plates were air dried. • Dissolution of the bound stain was done using […] trizma base and the absorbance was read at […] wavelength using an automated plate reader. • The percentage growth inhibition was calculated as follows: Ti-Tz/C-Tz×100forconcentrationswhichTi≥Tz Ti-Tz/Tz×100forconcentrationswhichTi<Tz • Time zero (Tz) • Control growth (C) • Test growth in the presence of drug (Ti)

[3] = test system: SF-539; experiment: NCI-60 SRB screen; format: cell-based; conditions: Homo sapiens; SF-539, 10^–5 Molar; read-out: Percent growth inhibition
Experimental: as §1, §2, §3

[4] = test system: UO-31; experiment: NCI-60 SRB screen; format: cell-based; conditions: Homo sapiens; UO-31, 10^–5 Molar; read-out: Percent growth inhibition
Experimental: as §1, §2, §3

[5] = test system: NCI-H522; experiment: NCI-60 SRB screen; format: cell-based; conditions: Homo sapiens; NCI-H522, 10^–5 Molar; read-out: Percent growth inhibition
Experimental: as §1, §2, §3

[6] = test system: MDA-MB-231/ATCC; experiment: NCI-60 SRB screen; format: cell-based; conditions: Homo sapiens, 10^–5 Molar, read-out: Percent growth inhibition
Experimental: as §1, §2, §3

[7] = test system: SK-MEL-2; experiment: NCI-60 SRB screen; format: cell-based; conditions: Homo sapiens; SK-MEL-2, 10^–5 Molar; read-out: Percent growth inhibition
Experimental: as §1, §2, §3

[8] = test system: LOX IMVI; experiment: NCI-60 SRB screen; format: cell-based; conditions: Homo sapiens, 10^–5 Molar, read-out: Percent growth inhibition
Experimental: as §1, §2, §3

[9] = test system: SNB-19; experiment: NCI-60 SRB screen; format: cell-based; conditions: Homo sapiens; SNB-19, 10^–5 Molar; read-out: Percent growth inhibition
Experimental: as §1, §2, §3

[10] = test system: MCF7; experiment: NCI-60 SRB screen; format: cell-based; conditions: Homo sapiens; MCF7, 10^–5 Molar; read-out: Percent growth inhibition
Experimental: as §1, §2, §3

[11] = test system: UACC-62; experiment: NCI-60 SRB screen; format: cell-based; conditions: Homo sapiens; UACC-62, 10^–5 Molar; read-out: Percent growth inhibition
Experimental: as §1, §2, §3

[12] = test system: OVCAR-4; experiment: NCI-60 SRB screen; format: cell-based; conditions: Homo sapiens; OVCAR-4, 10^–5 Molar; read-out: Percent growth inhibition
Experimental: as §1, §2, §3

[13] = test system: MDA-MB-435; experiment: NCI-60 SRB screen; format: cell-based; conditions: Homo sapiens; MDA-MB-435, 10^–5 Molar; read-out: Percent growth inhibition
Experimental: as §1, §2, §3

[14] = test system: CAKI-1; experiment: NCI-60 SRB screen; format: cell-based; conditions: Homo sapiens; CAKI-1, 10^–5 Molar; read-out: Percent growth inhibition
Experimental: as §1, §2, §3

[15] = test system: SW-620; experiment: NCI-60 SRB screen; format: cell-based; conditions: Homo sapiens; SW-620, 10^–5 Molar; read-out: Percent growth inhibition
Experimental: as §1, §2, §3

[16] = test system: NCI/ADR-RES; experiment: NCI-60 SRB screen; format: cell-based; conditions: Homo sapiens, 10^–5 Molar, read-out: Percent growth inhibition
Experimental: as §1, §2, §3

[17] = test system: BT-549; experiment: NCI-60 SRB screen; format: cell-based; conditions: Homo sapiens; BT-549, 10^–5 Molar; read-out: Percent growth inhibition
Experimental: as §1, §2, §3

[18] = test system: SNB-75; experiment: NCI-60 SRB screen; format: cell-based; conditions: Homo sapiens; SNB-75, 10^–5 Molar; read-out: Percent growth inhibition
Experimental: as §1, §2, §3

[19] = test system: HS 578T; experiment: NCI-60 SRB screen; format: cell-based; conditions: Homo sapiens, 10^–5 Molar, read-out: Percent growth inhibition
Experimental: as §1, §2, §3

[20] = test system: HCT-8 cancer cell lines; parameters: method as in PMID 22301863; conditions: HCT-8, Fig. 2; cited from earlier work
[21] = test system: MCF-7 cancer cell lines; parameters: method as in PMID 22301863; conditions: MCF-7, Fig. 2; cited from earlier work
[22] = test system: SMMC7721 cancer cell lines; parameters: method as in PMID 22301863; conditions: SMMC7721, Fig. 2; cited from earlier work
[23] = biological target: Topoisomerase II; parameters: method as in PMID 10051540, PMID 8824299, PMID 9651360; conditions: Topoisomerase II catalytic inhibitor, Fig. 1; cited from earlier work
[24] = test system: leukemia SR cells; experiment: Apoptosis, Annexin-V-FITC/PI; conditions: 3e at 1.90 µM, 24 h
[25] = biological target: T1, topoisomerase IIα (Homo sapiens, UniProt P11388); experiment: Topoisomerase ELISA kit inhibitory assay; format: biochemical; conditions: four concentrations
T1 construct: purchased MBS2885049
T1 sequence (P11388 whole entry): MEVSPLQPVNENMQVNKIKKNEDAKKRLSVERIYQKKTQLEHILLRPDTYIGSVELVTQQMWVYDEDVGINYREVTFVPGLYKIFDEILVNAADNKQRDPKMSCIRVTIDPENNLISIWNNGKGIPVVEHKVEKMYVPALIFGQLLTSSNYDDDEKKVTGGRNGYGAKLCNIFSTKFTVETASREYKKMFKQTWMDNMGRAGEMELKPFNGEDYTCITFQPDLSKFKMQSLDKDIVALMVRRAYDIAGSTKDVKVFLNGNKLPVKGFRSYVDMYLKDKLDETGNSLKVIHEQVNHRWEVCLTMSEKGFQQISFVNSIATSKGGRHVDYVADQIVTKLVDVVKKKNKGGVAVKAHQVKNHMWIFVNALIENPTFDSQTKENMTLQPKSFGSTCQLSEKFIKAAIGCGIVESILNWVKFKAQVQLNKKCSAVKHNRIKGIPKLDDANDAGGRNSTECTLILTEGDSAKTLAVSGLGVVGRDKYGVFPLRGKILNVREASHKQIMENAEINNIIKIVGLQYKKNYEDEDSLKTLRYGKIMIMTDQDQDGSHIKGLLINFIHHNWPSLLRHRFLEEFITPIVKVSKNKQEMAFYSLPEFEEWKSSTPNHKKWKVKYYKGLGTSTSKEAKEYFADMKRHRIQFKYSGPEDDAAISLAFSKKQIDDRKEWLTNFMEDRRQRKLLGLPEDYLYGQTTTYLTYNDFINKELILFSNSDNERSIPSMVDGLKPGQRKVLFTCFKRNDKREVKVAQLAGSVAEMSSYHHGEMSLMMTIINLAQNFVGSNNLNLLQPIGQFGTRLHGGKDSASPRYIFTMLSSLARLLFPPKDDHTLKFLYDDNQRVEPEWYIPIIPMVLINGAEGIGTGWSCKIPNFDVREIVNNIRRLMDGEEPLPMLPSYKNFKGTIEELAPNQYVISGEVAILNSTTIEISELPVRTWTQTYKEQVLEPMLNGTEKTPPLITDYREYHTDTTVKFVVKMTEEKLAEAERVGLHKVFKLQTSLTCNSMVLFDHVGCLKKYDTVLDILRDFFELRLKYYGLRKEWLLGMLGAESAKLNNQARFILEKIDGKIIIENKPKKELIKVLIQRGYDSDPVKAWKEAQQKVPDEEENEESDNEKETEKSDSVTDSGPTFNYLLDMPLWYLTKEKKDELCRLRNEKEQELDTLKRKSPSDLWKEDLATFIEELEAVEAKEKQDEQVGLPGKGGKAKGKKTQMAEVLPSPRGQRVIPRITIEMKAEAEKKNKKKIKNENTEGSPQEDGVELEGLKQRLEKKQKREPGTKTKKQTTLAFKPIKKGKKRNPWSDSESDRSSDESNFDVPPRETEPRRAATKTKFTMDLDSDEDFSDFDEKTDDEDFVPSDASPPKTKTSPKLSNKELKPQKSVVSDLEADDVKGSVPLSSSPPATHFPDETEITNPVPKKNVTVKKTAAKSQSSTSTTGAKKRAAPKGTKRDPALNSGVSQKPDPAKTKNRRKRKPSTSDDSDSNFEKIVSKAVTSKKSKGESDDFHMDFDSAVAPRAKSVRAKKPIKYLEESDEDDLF
Experimental: Four concentrations were used and IC50 was calculated.
Compound 3a,b,c,e were evaluated for topoisomerase IIα inhibitory activity utilizing the human DNA topoisomerase ELISA kit (MBS2885049) and following the provided procedure: • Standards and the tested compound were dissolved in sample diluent and tenfold serial dilution was achieved. • Biotin-conjugated antibody and avidin conjugated Horseradish Peroxidase (HRP-avidin) were diluted to tenfolds. • 100 µL of each concentration of standard or test compounds were added to each well and incubated at 37 °C for 1 h. • Removal of the liquid in each well was done. • To each well 100 µL of Biotin-conjugated antibody solution was added followed by incubation for 1 h at 37 °C. • The microtiter plate was allowed to aspirate and washed 3 times. • 100 µL of avidin conjugated Horseradish Peroxidase (HRP-avidin) solution was added to each well and incubatation for 1 h at 37 °C was achieved. • The plate was aspirated and washed 5 times. • Addition of 90 µL of 3,3′,5,5′-tetramethylbenzidine (TMB) substrate to each well followed by plate incubated for 30 min at 37 °C and protection from light was done. • 50 µL stop solution was added.

[26] = test system: leukemia SR cells; experiment: Cell cycle analysis, PI flow cytometry; format: cell-based, human; parameters: increase of cells at pre-G1 phase vs control: concentration or dose not given beside the values
Experimental: The cells were washed twice using Ice-cold phosphate buffer saline (PBS). • Centrifugation was used to collect the cells, then the cells were fixed in 70% (v/v) ethanol, washed with PBS and re-suspended with 0.10 mg/mL RNase. • After that, cells were stained with […] propidium iodide (PI) and evaluated by flow cytometry using FACSCalibur (Becton Dickinson).

## CCn1cc(C(=O)O)c(=O)c2cc(F)c(N3CCN(CC(=O)Nc4ccc(S(N)(=O)=O)cc4)C(C)C3)c(F)c21 (stereo not shown) [Compound 5d, 1-Ethyl-6,8-difluoro-7-(3-methyl-4-(2-oxo-2-((4-sulfamoylphenyl)amino)ethyl)piperazin-1-yl)-4-oxo-1,4-dihydroquinoline-3-carboxylic acid]
[1]
  activity at 10 µM: 103%
[2]
  inhibition at 10 µM: 1.64%
[3]
  inhibition at 10 µM: 0.93%
[4]
  inhibition at 10 µM: 12.9%
[5]
  inhibition at 10 µM: 6.33%
[6]
  inhibition at 10 µM: 0.31%
[7]
  inhibition at 10 µM: 2.33%
[8]
  inhibition at 10 µM: 4.12%
[9]
  inhibition at 10 µM: 3.07%
[10]
  inhibition at 10 µM: 5.22%
[11]
  inhibition at 10 µM: 9.32%
[12]
  inhibition at 10 µM: 3.58%
[13]
  inhibition at 10 µM: 1.15%
[14]
  inhibition at 10 µM: 3.88%
[15]
  inhibition at 10 µM: 0.37%
[16]
  inhibition at 10 µM: 0.27%
[17]
  inhibition at 10 µM: 0.7%
[18]
  inhibition at 10 µM: 11.9%
[19]
  inhibition at 10 µM: 0.41%
other
  melting point: 228 to 230 °C

## O=C(N/N=C/c1ccc2c(c1)OCO2)c1cn(C2CC2)c2cc(N3CCNCC3)c(F)cc2c1=O [QNT4]
[20]
  IC50: 3.69 µM
[21]
  IC50: 3.71 µM
[22]
  IC50: 2960 nM

## O=C1NC(=S)NC(=O)C1C(=O)Nc1ccccc1 [Merbarone]
[23]
  IC50: 20 µM

## COc1cccc2c1C(=O)c1c(O)c3c(c(O)c1C2=O)C[C@@](O)(C(=O)CO)C[C@@H]3O[C@H]1C[C@H](N)[C@H](O)[C@H](C)O1 [Doxorubicin, reference compound]
[24]
  Apoptosis %Early: 5.88%
  Apoptosis %Late: 12.21%
  Apoptosis %Total: 22.17%
  Necrosis: 4.08%
[25]
  IC50: 610 nM
[26]
  increase of cells at pre-G1 phase vs control: 8.62 folds
[26]; 3e at 1.90 µM, 24 h
  %G0-G1: 25.18%
  %G2-M: 46.06%
  %Pre-G1: 22.17%
  %S: 28.76%
